Experimental data taken from paper PMC12040969, “Design, synthesis, in silico studies, and apoptotic antiproliferative activity of novel thiazole-2-acetamide derivatives as tubulin polymerization inhibitors” (Frontiers in Chemistry, 2025).

What was measured:
[1] = Cell viability assay (MTT), normal cells; assay type: cell-based; details: human, MCF-10A normal mammary gland epithelial cells, four-day incubation
Procedure: The impact of novel compounds 10a-o and 13a-e on cell viability was examined using the MCF-10A (human mammary gland epithelial) normal cell line. The MTT test was employed to assess the cell viability of the novel compounds after a four-day incubation with MCF-10A cells ([El-Sherief et al., 2019]; [Ramadan et al., 2020]).
The effects of compounds 10a-o and 13a-e on cell viability were assessed using the human mammary gland epithelial normal cell line (MCF-10A). The MTT assay assessed the cell viability of compounds 10a-o and 13a-e following a four-day incubation with MCF-10A cells ([El-Sherief et al., 2019]; [Ramadan et al., 2020]). Check Supplementary Appendix A for additional information.
4.2. Biological evaluation
4.2.1 Cell Viability assay (MTT assay)
MTT assay was performed to investigate the effect of the synthesized compounds on mammary epithelial cells (MCF-10A). The cells were propagated in medium consisting of Ham's F-12 medium/ Dulbecco's modified Eagle's medium (DMEM) (1:1) supplemented with 10% foetal calf serum, 2 mM glutamine, insulin (10 μg/mL), hydrocortisone (500 ng/mL) and epidermal growth factor (20 ng/mL). Trypsin ethylenediamine tetra acetic acid (EDTA) was used to passage the cells after every 2-3 days. 96-well flat-bottomed cell culture plates were used to seed the cells at a density of 10^4 cells mL-1. The medium was aspirated from all the wells of culture plates after 24 h followed by the addition of synthesized compounds (in 200 μL medium to yield a final concentration of 0.1% (v/v) dimethyl sulfoxide) into individual wells of the plates.
Four wells were designated to a single compound. The plates were allowed to incubate at 37°C for 96 h. Afterwards, the medium was aspirated and 3-[4,5-dimethylthiazol-2-yl]-2,5-diphenyltetrazolium bromide (MTT) (0.4 mg/mL) in medium was added to each well and subsequently incubated for 3 h. The medium was aspirated and 150 μL dimethyl sulfoxide (DMSO) was added to each well. The plates were vortexed followed by the measurement of absorbance at 540 nm on a microplate reader. The results were presented as inhibition (%) of proliferation in contrast to controls comprising 0.1%

[2] = tested on: prostatic - PC-3; assay: Antiproliferative assay (MTT) PC-3; details: for IC50: read-out: Antiproliferative activity IC50 ± SEM (µM) PC-3, PC-3, MTT
[3] = tested on: breast - MCF-7; assay: Antiproliferative assay (MTT) MCF-7; details: for IC50: read-out: Antiproliferative activity IC50 ± SEM (µM) MCF-7, MCF-7, MTT
[4] = tested on: colon - HCT-116; assay: Antiproliferative assay (MTT) HCT-116; details: for IC50: read-out: Antiproliferative activity IC50 ± SEM (µM) HCT-116, HCT-116, MTT
[5] = tested on: - MDAMB-231; assay: Antiproliferative assay (MTT) MDAMB-231
[6] = tested on: pancreatic - MDAMB-231; assay: Antiproliferative assay (MTT) MDAMB-231; details: read-out: Antiproliferative activity IC50 ± SEM (µM) MDAMB-231; MDAMB-231, MTT
[7] = tested on: four human cancer cell lines (HCT-116, PC-3, MCF-7, MDAMB-231); assay: Antiproliferative assay, mean of four cell lines (GI50); details: for Reduced potency compared to doxorubicin (GI50) / Reduced potency compared to sorafenib (GI50): GI50 ratio; for IC50: Homo sapiens, read-out: GI50 (average IC50)
[8] = tested on: tubulin; assay: Tubulin polymerization inhibition assay (Cytoskeleton kit); details: for Tub %inh: 30 min, YB-EGY run; for Tub K.Activity: EC = 120, YB-EGY run; for IC50: read-out: Tubulin inhibition IC50 ± SEM, triplicate for each tested concentration;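 on all read-outs here: Cell-free tubulin polymerization read by fluorescent reporter enhancement over a 30 min reaction, with the compound-free kit control taken as 100% activity and inhibition relative to it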

SMILES: Cc1nc(SCC(=O)Nc2nccs2)sc1C(=O)/C=C/c1ccc(F)cc1 [Compound 13c, (E)-2-((5-(3-(4-fluorophenyl)acryloyl)-4-methylthiazol-2-yl)thio)-N-(thiazol-2-yl)acetamide]
- viability at 96 h, 50 µM [1]: 86%
- Average of Relative viability of cells (%) ([2]; PC-3, 1.56 µM): 100%
- Average of Relative viability of cells (%) ([2]; PC-3, 3.125 µM): 99.1%
- Average of Relative viability of cells (%) ([2]; PC-3, 6.25 µM): 87.9%
- Average of Relative viability of cells (%) ([2]; PC-3, 12.5 µM): 67.7%
- Average of Relative viability of cells (%) ([2]; PC-3, 25 µM): 54.6%
- Average of Relative viability of cells (%) ([2]; PC-3, 50 µM): 42.1%
- Average of Relative viability of cells (%) ([2]; PC-3, 100 µM): 28.8%
- IC50 [2]: 34 ± 2.1 µM
- Average of Relative viability of cells (%) ([3]; MCF-7, 1.56 µM): 100%
- Average of Relative viability of cells (%) ([3]; MCF-7, 3.125 µM): 96.3%
- Average of Relative viability of cells (%) ([3]; MCF-7, 6.25 µM): 83.0%
- Average of Relative viability of cells (%) ([3]; MCF-7, 12.5 µM): 68.1%
- Average of Relative viability of cells (%) ([3]; MCF-7, 25 µM): 51.6%
- Average of Relative viability of cells (%) ([3]; MCF-7, 50 µM): 36.7%
- Average of Relative viability of cells (%) ([3]; MCF-7, 100 µM): 21.7%
- IC50 [3]: 28 ± 1.8 µM
- Average of Relative viability of cells (%) ([4]; HCT-116, 1.56 µM): 100%
- Average of Relative viability of cells (%) ([4]; HCT-116, 3.125 µM): 92.6%
- Average of Relative viability of cells (%) ([4]; HCT-116, 6.25 µM): 73.1%
- Average of Relative viability of cells (%) ([4]; HCT-116, 12.5 µM): 51.3%
- Average of Relative viability of cells (%) ([4]; HCT-116, 25 µM): 42.2%
- Average of Relative viability of cells (%) ([4]; HCT-116, 50 µM): 29.9%
- Average of Relative viability of cells (%) ([4]; HCT-116, 100 µM): 16.1%
- IC50 [4]: 18 ± 1.4 µM
- Average of Relative viability of cells (%) ([5]; MDAMB-231, 1.56 µM): 100%
- Average of Relative viability of cells (%) ([5]; MDAMB-231, 3.125 µM): 93.3%
- Average of Relative viability of cells (%) ([5]; MDAMB-231, 6.25 µM): 71.6%
- Average of Relative viability of cells (%) ([5]; MDAMB-231, 12.5 µM): 54.8%
- Average of Relative viability of cells (%) ([5]; MDAMB-231, 25 µM): 50.1%
- Average of Relative viability of cells (%) ([5]; MDAMB-231, 50 µM): 38.9%
- Average of Relative viability of cells (%) ([5]; MDAMB-231, 100 µM): 19.6%
- IC50 [6]: 23 ± 1.7 µM
- Reduced potency compared to doxorubicin (GI50) [7]: at least 2.5 fold
- Reduced potency compared to sorafenib (GI50) [7]: ≥ 1.5 fold
- IC50 [7]: 26 µM
- Tub %inh ([8]; conc 0.1 (unit not given)): 6.12%
- Tub K.Activity ([8]; conc 0.1 (unit not given)): 112.66
- Tub %inh ([8]; conc 1 (unit not given)): 27.4%
- Tub K.Activity ([8]; conc 1 (unit not given)): 87.115
- Tub %inh ([8]; conc 10 (unit not given)): 48.8%
- Tub K.Activity ([8]; conc 10 (unit not given)): 61.436
- Tub %inh ([8]; conc 50 (unit not given)): 71.2%
- Tub K.Activity ([8]; conc 50 (unit not given)): 34.549
- Tub %inh ([8]; conc 100 (unit not given)): 90.8%
- Tub K.Activity ([8]; conc 100 (unit not given)): 10.995
- IC50 [8]: 6.05 ± 0.18 µM

SMILES: Cc1nc(SCC(=O)Nc2nc(-c3ccc(Cl)cc3)cs2)sc1C(=O)/C=C/c1ccc(F)cc1 [Compound 10h, (E)-N-(4-(4-chlorophenyl)thiazol-2-yl)-2-((5-(3-(4-fluorophenyl)acryloyl)-4-methylthiazol-2-yl)thio)acetamide]
- viability at 96 h, 50 µM [1]: 85%
- Average of Relative viability of cells (%) ([2]; PC-3, 1.56 µM): 100%
- Average of Relative viability of cells (%) ([2]; PC-3, 3.125 µM): 100%
- Average of Relative viability of cells (%) ([2]; PC-3, 6.25 µM): 100%
- Average of Relative viability of cells (%) ([2]; PC-3, 12.5 µM): 93.5%
- Average of Relative viability of cells (%) ([2]; PC-3, 25 µM): 72.4%
- Average of Relative viability of cells (%) ([2]; PC-3, 50 µM): 55.8%
- Average of Relative viability of cells (%) ([2]; PC-3, 100 µM): 36.5%
- IC50 [2]: 61 ± 3.5 µM
- Average of Relative viability of cells (%) ([3]; MCF-7, 1.56 µM): 100%
- Average of Relative viability of cells (%) ([3]; MCF-7, 3.125 µM): 94.8%
- Average of Relative viability of cells (%) ([3]; MCF-7, 6.25 µM): 76.5%
- Average of Relative viability of cells (%) ([3]; MCF-7, 12.5 µM): 53.9%
- Average of Relative viability of cells (%) ([3]; MCF-7, 25 µM): 50.2%
- Average of Relative viability of cells (%) ([3]; MCF-7, 50 µM): 37.1%
- Average of Relative viability of cells (%) ([3]; MCF-7, 100 µM): 23.6%
- IC50 [3]: 24 ± 1.7 µM
- Average of Relative viability of cells (%) ([4]; HCT-116, 1.56 µM): 100%
- Average of Relative viability of cells (%) ([4]; HCT-116, 3.125 µM): 97.6%
- Average of Relative viability of cells (%) ([4]; HCT-116, 6.25 µM): 79.5%
- Average of Relative viability of cells (%) ([4]; HCT-116, 12.5 µM): 69.3%
- Average of Relative viability of cells (%) ([4]; HCT-116, 25 µM): 52.8%
- Average of Relative viability of cells (%) ([4]; HCT-116, 50 µM): 39.4%
- Average of Relative viability of cells (%) ([4]; HCT-116, 100 µM): 20.2%
- IC50 [4]: 29 ± 1.9 µM
- Average of Relative viability of cells (%) ([5]; MDAMB-231, 1.56 µM): 100%
- Average of Relative viability of cells (%) ([5]; MDAMB-231, 3.125 µM): 85.7%
- Average of Relative viability of cells (%) ([5]; MDAMB-231, 6.25 µM): 68.5%
- Average of Relative viability of cells (%) ([5]; MDAMB-231, 12.5 µM): 47.4%
- Average of Relative viability of cells (%) ([5]; MDAMB-231, 25 µM): 37.1%
- Average of Relative viability of cells (%) ([5]; MDAMB-231, 50 µM): 26.7%
- Average of Relative viability of cells (%) ([5]; MDAMB-231, 100 µM): 21.6%
- IC50 [6]: 15 ± 1.3 µM
- Reduced potency compared to doxorubicin (GI50) [7]: at least 2.5 fold
- Reduced potency compared to sorafenib (GI50) [7]: ≥ 1.5 fold
- IC50 [7]: 32 µM
- Tub %inh ([8]; conc 0.1 (unit not given)): 9.85%
- Tub K.Activity ([8]; conc 0.1 (unit not given)): 108.18
- Tub %inh ([8]; conc 1 (unit not given)): 26.6%
- Tub K.Activity ([8]; conc 1 (unit not given)): 88.132
- Tub %inh ([8]; conc 10 (unit not given)): 44.8%
- Tub K.Activity ([8]; conc 10 (unit not given)): 66.269
- Tub %inh ([8]; conc 50 (unit not given)): 65.5%
- Tub K.Activity ([8]; conc 50 (unit not given)): 41.405
- Tub %inh ([8]; conc 100 (unit not given)): 84.5%
- Tub K.Activity ([8]; conc 100 (unit not given)): 18.607
- IC50 [8]: 7.95 ± 0.24 µM
